Activity calls are given as the source filed them. The rule behind the calls is not given here.

The test system of one assay is HEK293. Description: Cytotoxicity against HEK293 cells assessed as growth inhibition after 72 hrs by MTT assay. In kind it is cell-based. Particulars: Homo sapiens, HEK293, 72 h.
For assay [1], the species on record is Ovis aries. Nature of the assay: Induction of abnormal lamb brain tubulin polymer formation at 50 uM by uranyl acetate staining-based transmission electron microscopy.
The species named for assay [2] is Ovis aries. Nature of the assay: Binding affinity to lamb brain tubulin after 15 mins by fluorimetric titration method.
In assay [3] the test system is A549. Description: Cytotoxicity against human A549 cells assessed as growth inhibition after 72 hrs by MTT assay. The format is functional, cell-based. To be noted: A549, 72 h.
Assay [4] can be described thus: Selectivity index, ratio of IC50 for HEK293 cells to IC50 for human MCF7 cells. In kind it is functional.
Assay [5] can be described thus: Selectivity index, ratio of IC50 for HEK293 cells to IC50 for human A549 cells. In kind it is functional.
The species named for assay [6] is Ovis aries. Description: Inhibition of lamb brain tubulin self assembly assessed as decrease in microtubule formation at 10 uM after 10 mins by turbidimetry/spectrometry.
The species entered for assay [7] is Ovis aries. Description: Induction of abnormal lamb brain tubulin polymer formation at 50 uM after 10 mins by turbidimetry.
For another assay, the system named is HT-29. Nature of the assay: Cytotoxicity against human HT-29 cells assessed as growth inhibition after 72 hrs by MTT assay. The format is functional, cell-based. Particulars: HT-29, 72 h.
Another assay has as its system MCF7. Description: Cytotoxicity against human MCF7 cells assessed as growth inhibition after 72 hrs by MTT assay. Particulars: MCF7, 72 h. The format is functional, cell-based.
A short description of assay [8]: Inhibition of lamb brain tubulin self assembly assessed as decrease in microtubule formation after 10 mins by turbidimetry/spectrometry. Set-up: species or system Ovis aries.
Assay [9] in a line: Selectivity index, ratio of IC50 for HEK293 cells to IC50 for human HT-29 cells. The format is functional.
The species named for assay [10] is Ovis aries. Description: Binding affinity to lamb brain tubulin at 10 uM by fluorimetric titration method.
Assay [11] is filed under the species Ovis aries. Description: Binding affinity to lamb brain tubulin-colchicine complex at 20 uM by fluorimetric titration method.
For assay [12], the species on record is Ovis aries. Nature of the assay: Inhibition of lamb brain tubulin self assembly assessed as decrease in microtubule formation at 0.1 uM by uranyl acetate staining-based transmission electron microscopy.
The species entered for assay [13] is Ovis aries. Nature of the assay: Induction of abnormal lamb brain tubulin polymer formation at 10 uM after 10 mins by turbidimetry.
Assay [14] concerns A549. Nature of the assay: Induction of microtubule depolymerization in human A549 cells at 100 nM after 4 hrs by immunofluorescence microscopic method. In kind it is cell-based.
The subject of assay [15] is A549. Description: Cell cycle arrest in human A549 cells assessed as accumulation at G2/M phase at IC50 after 24 hrs by propidium iodide staining-based flow cytometric method. The format is functional.

`CCCCCCCC(=O)N[C@H]1CCc2cc(OC)c(OC)c(OC)c2-c2ccc(OC)c(=O)cc21`: the IC50 in the assay on HEK293 is 18.9 nM; with A549 [3], 133 nM; with HT-29 it was 1.69 nM; with MCF7 it was 23 nM; in assay [8], 1080 nM. Further, the outcome in the assay listed under Ovis aries [1] and in the assay filed under Ovis aries [7] was Active. In the assay listed under Ovis aries [2], this compound displayed a Kapp of 5.2 ×10⁴ /M. For the same compound, the “Ratio IC50” value was 0.8 in [4], 0.14 in assay [5] and 11.2 in assay [9]. Moreover, the inhibition in the assay listed under Ovis aries [6] came to 80%.

With `CCCCCCCCCCCCCCCC(=O)N[C@H]1CCc2cc(OC)c(OC)c(OC)c2-c2ccc(OC)c(=O)cc21`, the results for the IC50 in the assay on HEK293, in the assay on HT-29 and with MCF7 were 244 nM, 184 nM and 720 nM, respectively. Also, the “Ratio IC50” value in [4] is reported as 0.3; in assay [9], 1.3.

In the case of `CCCCCCCCCC(=O)N[C@H]1CCc2cc(OC)c(OC)c(OC)c2-c2ccc(OC)c(=O)cc21`, the IC50 in the assay on HEK293 is 0.242 nM; in the assay on A549 [3], 25 nM; in the assay on HT-29 it was 0.143 nM; in the assay with MCF7, 29 nM; in assay [8], 700 nM. Besides, the result in the assay listed under Ovis aries [10], in the assay filed under Ovis aries [7], in the assay listed under Ovis aries [13] and in the assay with A549 [14] was Active. This compound also returned a Kapp in the assay listed under Ovis aries [2] of 17.9 ×10⁴ /M. Further, the result in the assay filed under Ovis aries [11] was inactive. The “Ratio IC50” value was below 0.1 in [4], below 0.1 in assay [5] and 1.7 in assay [9]. For the same compound, the inhibition result in the assay listed under Ovis aries [12] is “Active”.

In the case of `CCCCCCCCCCCCCCCCCC(=O)N[C@H]1CCc2cc(OC)c(OC)c(OC)c2-c2ccc(OC)c(=O)cc21`, the IC50 with HEK293 turned out to be 766 nM; with HT-29, 1010 nM; in the assay on MCF7, 120 nM. In addition, the results for the “Ratio IC50” value in assay [4] and in assay [9] were 6.4 and 0.8, respectively.

Take `CCCCCCCCCCCC(=O)N[C@H]1CCc2cc(OC)c(OC)c(OC)c2-c2ccc(OC)c(=O)cc21`: the IC50 stood at 0.23 nM with HEK293; 71.9 nM in the assay on A549 [3]; 0.27 nM in the assay with HT-29; 0.53 nM in the assay with MCF7; 1210 nM in assay [8]. Moreover, the result in the assay filed under Ovis aries [1], in the assay filed under Ovis aries [7] and in the assay listed under Ovis aries [13] was Active. The Kapp in the assay filed under Ovis aries [2] was determined as 19 ×10⁴ /M. Further, the “Ratio IC50” value in [4] is 0.4; in assay [5], below 0.1; in assay [9], 0.9.

With `CCCCCCCCCCCCC(=O)N[C@H]1CCc2cc(OC)c(OC)c(OC)c2-c2ccc(OC)c(=O)cc21`, the figures for the IC50 with HEK293, in the assay with HT-29 and in the assay with MCF7 were 1.5 nM, 7 nM and 6.8 nM, respectively. Further, the “Ratio IC50” value in [4] and in assay [9] was 0.2 in each case.

Turning to `COc1cc2c(c(OC)c1OC)-c1ccc(OC)c(=O)cc1[C@@H](NC(C)=O)CC2` [COLCHICINE], the Activity in the assay on A549 [15] is 8%. Moreover, in the assay with A549 [3], the concentration for half-maximal inhibition (IC50) turned out to be 14 nM. Also, the outcome in the assay with A549 [14] was Active.

On to `CCCCCCCCCCCCCC(=O)N[C@H]1CCc2cc(OC)c(OC)c(OC)c2-c2ccc(OC)c(=O)cc21`, for which the IC50 came to 46 nM in the assay with HEK293, 36 nM in the assay with HT-29 and 20 nM in the assay on MCF7. The “Ratio IC50” value in assay [4] is 2.3; in assay [9], 1.3.

For `CCCCCC(=O)N[C@H]1CCc2cc(OC)c(OC)c(OC)c2-c2ccc(OC)c(=O)cc21`, the IC50 turned out to be 7.1 nM with HEK293; 18 nM with A549 [3]; 3.37 nM in the assay with HT-29; 7.02 nM in the assay with MCF7; 2060 nM in assay [8]. In the assay listed under Ovis aries [2], the Kapp worked out at 6.4 ×10⁴ /M. Also, the “Ratio IC50” value was found to be 1 in [4], 0.39 in assay [5] and 2.1 in assay [9]. Also, the inhibition result in the assay filed under Ovis aries [6] was “Active”. The outcome in the assay listed under Ovis aries [7] and in the assay with A549 [14] was Active.

`CCCCCCCCCCC(=O)N[C@H]1CCc2cc(OC)c(OC)c(OC)c2-c2ccc(OC)c(=O)cc21`: in the assay on A549 [15], the Activity was 41%. Further, the IC50 in the assay with HEK293 is 0.17 nM; in the assay with A549 [3], 62 nM; with HT-29, 0.041 nM; with MCF7, 1.77 nM; in assay [8], 790 nM. This compound had a Kapp in the assay filed under Ovis aries [2] of 18.4 ×10⁴ /M. For the same compound, the “Ratio IC50” value in assay [4] is 0.1; in [5], below 0.1; in [9] it was 4.2. In addition, the outcome in the assay listed under Ovis aries [7] and in the assay listed under Ovis aries [13] was Active.

On to `CCCC(=O)N[C@H]1CCc2cc(OC)c(OC)c(OC)c2-c2ccc(OC)c(=O)cc21`, for which the IC50 in the assay on HEK293 was found to be 13.5 nM; with HT-29, 10 nM; in the assay on MCF7, 13 nM. The “Ratio IC50” value in assay [4] came to 1; in assay [9], 1.4.

The record behind these values is ChEMBL document CHEMBL3997771 (Eur J Med Chem, 2017).
